# Measurements reported in patent publication US12539292B2, “BRM targeting compounds and associated methods of use” (Arvinas Operations, Inc., priority 2018, dated 2026).
# Molecular target: T1, BRM (Homo sapiens, UniProt P51531)
# T1 construct: In-Cell Western Screen of BRM Degradation in SW1573 Cells; endogenous in cells; host or cells: SW1573
# Test: In-cell Western screen of BRM degradation in SW1573 cells (Dmax and DC50)
# Assay type: cell-based
# Conditions: BRM degradation, SW1573 cells; for DC50: read-out: DC50; for Dmax: tested at the top concentration of between 0.3 and 10 μM, read-out: Dmax (%) (% degraded)
# How it was run: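 SW1573, overnight cpd exposure (18-20 h), 0.1% DMSO final. PFA fix, 0.5% Triton permeabilization, block; IR secondaries at 800/680 nm. Odyssey read → Dmax, DC50.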
# T1 sequence (P51531 whole entry): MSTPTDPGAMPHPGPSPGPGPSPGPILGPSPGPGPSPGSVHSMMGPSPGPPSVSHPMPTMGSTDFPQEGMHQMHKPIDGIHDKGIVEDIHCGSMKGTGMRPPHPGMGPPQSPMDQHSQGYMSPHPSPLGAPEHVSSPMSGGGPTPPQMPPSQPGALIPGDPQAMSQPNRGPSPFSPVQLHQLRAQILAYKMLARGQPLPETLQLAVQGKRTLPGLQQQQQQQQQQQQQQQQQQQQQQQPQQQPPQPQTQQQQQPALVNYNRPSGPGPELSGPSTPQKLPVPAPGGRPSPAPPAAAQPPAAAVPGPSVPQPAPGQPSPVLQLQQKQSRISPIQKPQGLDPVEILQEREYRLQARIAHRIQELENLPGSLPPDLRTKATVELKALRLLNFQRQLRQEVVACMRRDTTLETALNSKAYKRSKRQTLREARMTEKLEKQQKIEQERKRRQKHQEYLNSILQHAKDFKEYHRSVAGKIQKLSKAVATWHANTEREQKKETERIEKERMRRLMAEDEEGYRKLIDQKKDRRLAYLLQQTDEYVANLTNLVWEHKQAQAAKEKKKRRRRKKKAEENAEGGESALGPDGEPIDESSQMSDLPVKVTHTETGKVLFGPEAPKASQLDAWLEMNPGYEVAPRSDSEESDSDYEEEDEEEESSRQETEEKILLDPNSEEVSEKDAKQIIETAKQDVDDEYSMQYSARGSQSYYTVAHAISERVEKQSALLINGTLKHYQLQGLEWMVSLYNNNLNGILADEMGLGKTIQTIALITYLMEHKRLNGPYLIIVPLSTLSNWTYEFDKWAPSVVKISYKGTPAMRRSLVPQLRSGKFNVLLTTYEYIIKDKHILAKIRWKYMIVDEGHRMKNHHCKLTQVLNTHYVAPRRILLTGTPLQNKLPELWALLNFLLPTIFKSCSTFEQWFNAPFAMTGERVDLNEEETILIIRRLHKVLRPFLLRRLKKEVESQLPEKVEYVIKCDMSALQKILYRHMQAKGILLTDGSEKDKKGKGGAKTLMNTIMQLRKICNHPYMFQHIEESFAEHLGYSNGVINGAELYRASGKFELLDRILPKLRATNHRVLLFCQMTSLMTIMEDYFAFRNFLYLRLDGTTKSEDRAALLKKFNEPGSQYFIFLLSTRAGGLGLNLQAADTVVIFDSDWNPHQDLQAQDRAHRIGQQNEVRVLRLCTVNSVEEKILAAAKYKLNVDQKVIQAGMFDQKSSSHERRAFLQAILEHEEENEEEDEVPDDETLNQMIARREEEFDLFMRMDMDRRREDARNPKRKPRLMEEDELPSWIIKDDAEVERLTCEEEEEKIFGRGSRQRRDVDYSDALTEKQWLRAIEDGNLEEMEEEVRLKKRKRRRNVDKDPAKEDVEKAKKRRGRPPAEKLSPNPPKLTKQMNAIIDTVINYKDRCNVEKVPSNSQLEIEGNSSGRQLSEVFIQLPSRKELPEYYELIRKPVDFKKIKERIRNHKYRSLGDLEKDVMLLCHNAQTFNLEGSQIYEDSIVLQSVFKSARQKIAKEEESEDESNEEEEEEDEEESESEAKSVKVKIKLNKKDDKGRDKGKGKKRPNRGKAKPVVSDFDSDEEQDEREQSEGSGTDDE
Compound,DC50 [nM],Dmax [%]
"Cc1ncsc1-c1ccc([C@@H](CN)NC(=O)[C@@H]2C[C@@H](O)CN2C(=O)[C@@H](c2cc(OCCN3CCN(CCOc4cc(N5C6CCC5CN(c5cc(-c7ccccc7O)nnc5N)C6)ccn4)CC3)no2)C(C)C)cc1 [compound 256, (2S,4R)-N-((S)-2-amino-1-(4-(4-methylthiazol-5-yl)phenyl)ethyl)-1-((2R)-2-(3-(2-(4-(2-((4-(3-(3-amino-6-(2-hydroxyphenyl)pyridazin-4-yl)-3,8-diazabicyclo[3.2.1]octan-8-yl)pyridin-2-yl)oxy)ethyl)piperazin-1-yl)ethoxy)isoxazol-5-yl)-3-methylbutanoyl)-4-hydroxypyrrolidine-2-carboxamide]",> 30,–
"CCOC[C@H](NC(=O)[C@@H]1C[C@@H](O)CN1C(=O)[C@H](c1cc(OCCN2CCN(CCOc3cc(N4C5CCC4CN(c4cc(-c6ccccc6O)nnc4N)C5)ccn3)CC2)no1)C(C)C)c1ccc(-c2scnc2C)cc1 [compound 257, (2S,4R)-1-((2S)-2-(3-(2-(4-(2-((4-(3-(3-amino-6-(2-hydroxyphenyl)pyridazin-4-yl)-3,8-diazabicyclo[3.2.1]octan-8-yl)pyridin-2-yl)oxy)ethyl)piperazin-1-yl)ethoxy)isoxazol-5-yl)-3-methylbutanoyl)-N-((R)-2-ethoxy-1-(4-(4-methylthiazol-5-yl)phenyl)ethyl)-4-hydroxypyrrolidine-2-carboxamide]",2.5 to 10,> 75
"Cc1ncsc1-c1ccc([C@@H](NC(=O)[C@@H]2C[C@@H](O)CN2C(=O)[C@H](c2cc(OCCN3CCN(CCOc4cc(N5C6CCC5CN(c5cc(-c7ccccc7O)nnc5N)C6)ccn4)CC3)no2)C(C)C)C(=O)N(C)c2ccccc2)cc1 [compound 258, (2S,4R)-1-((2S)-2-(3-(2-(4-(2-((4-(3-(3-amino-6-(2-hydroxyphenyl)pyridazin-4-yl)-3,8-diazabicyclo[3.2.1]octan-8-yl)pyridin-2-yl)oxy)ethyl)piperazin-1-yl)ethoxy)isoxazol-5-yl)-3-methylbutanoyl)-4-hydroxy-N-((R)-2-(methyl(phenyl)amino)-1-(4-(4-methylthiazol-5-yl)phenyl)-2-oxoethyl)pyrrolidine-2-carboxamide]",> 30,–
"Cc1ncsc1-c1ccc([C@@H](NC(=O)[C@@H]2C[C@@H](O)CN2C(=O)[C@@H](c2cc(OCCN3CCN(CCOc4cc(N5C6CCC5CN(c5cc(-c7ccccc7O)nnc5N)C6)ccn4)CC3)no2)C(C)C)C(=O)N(C)c2ccccc2)cc1 [compound 259, (2S,4R)-1-((2R)-2-(3-(2-(4-(2-((4-(3-(3-amino-6-(2-hydroxyphenyl)pyridazin-4-yl)-3,8-diazabicyclo[3.2.1]octan-8-yl)pyridin-2-yl)oxy)ethyl)piperazin-1-yl)ethoxy)isoxazol-5-yl)-3-methylbutanoyl)-4-hydroxy-N-((R)-2-(methyl(phenyl)amino)-1-(4-(4-methylthiazol-5-yl)phenyl)-2-oxoethyl)pyrrolidine-2-carboxamide]",< 2.5,> 75
"Cc1ncsc1-c1ccc([C@H](C)NC(=O)[C@@H]2C[C@@H](O)CN2C(=O)[C@H](c2cc(OCCC3CCN(C(=O)[C@H]4C[C@H](Oc5cc(N6C7CCC6CN(c6cc(-c8ccccc8O)nnc6N)C7)ccn5)C4)CC3)no2)C(C)C)cn1 [compound 260, (2S,4R)-1-((2S)-2-(3-(2-(1-((1r,3S)-3-((4-(3-(3-amino-6-(2-hydroxyphenyl)pyridazin-4-yl)-3,8-diazabicyclo[3.2.1]octan-8-yl)pyridin-2-yl)oxy)cyclobutane-1-carbonyl)piperidin-4-yl)ethoxy)isoxazol-5-yl)-3-methylbutanoyl)-4-hydroxy-N-((S)-1-(6-(4-methylthiazol-5-yl)pyridin-3-yl)ethyl)pyrrolidine-2-carboxamide]",> 30,–
"Cc1ncsc1-c1ccc([C@H](C)NC(=O)[C@@H]2C[C@@H](O)CN2C(=O)[C@@H](c2cc(OCCC3CCN(C(=O)[C@H]4C[C@H](Oc5cc(N6C7CCC6CN(c6cc(-c8ccccc8O)nnc6N)C7)ccn5)C4)CC3)no2)C(C)C)cn1 [compound 261, (2S,4R)-1-((2R)-2-(3-(2-(1-((1r,3R)-3-((4-(3-(3-amino-6-(2-hydroxyphenyl)pyridazin-4-yl)-3,8-diazabicyclo[3.2.1]octan-8-yl)pyridin-2-yl)oxy)cyclobutane-1-carbonyl)piperidin-4-yl)ethoxy)isoxazol-5-yl)-3-methylbutanoyl)-4-hydroxy-N-((S)-1-(6-(4-methylthiazol-5-yl)pyridin-3-yl)ethyl)pyrrolidine-2-carboxamide]",< 2.5,> 75
"Cc1ncsc1-c1ccc([C@H](COCC2CCOCC2)NC(=O)[C@@H]2C[C@@H](O)CN2C(=O)[C@H](c2cc(OCCN3CCN(CCOc4cc(N5C6CCC5CN(c5cc(-c7ccccc7O)nnc5N)C6)ccn4)CC3)no2)C(C)C)cc1 [compound 262, (2S,4R)-1-((2S)-2-(3-(2-(4-(2-((4-(3-(3-amino-6-(2-hydroxyphenyl)pyridazin-4-yl)-3,8-diazabicyclo[3.2.1]octan-8-yl)pyridin-2-yl)oxy)ethyl)piperazin-1-yl)ethoxy)isoxazol-5-yl)-3-methylbutanoyl)-4-hydroxy-N-((R)-1-(4-(4-methylthiazol-5-yl)phenyl)-2-((tetrahydro-2H-pyran-4-yl)methoxy)ethyl)pyrrolidine-2-carboxamide]",> 30,–
"CC(C)[C@H](C(=O)N1C[C@H](O)C[C@H]1C(=O)N[C@@H](C)c1ccc(-c2ccnn2C)cc1)c1cc(OCCN2CCN(CCOc3cc(N4C5CCC4CN(c4cc(-c6ccccc6O)nnc4N)C5)ccn3)CC2)no1 [compound 263, (2S,4R)-1-((2S)-2-(3-(2-(4-(2-((4-(3-(3-amino-6-(2-hydroxyphenyl)pyridazin-4-yl)-3,8-diazabicyclo[3.2.1]octan-8-yl)pyridin-2-yl)oxy)ethyl)piperazin-1-yl)ethoxy)isoxazol-5-yl)-3-methylbutanoyl)-4-hydroxy-N-((S)-1-(4-(1-methyl-1H-pyrazol-5-yl)phenyl)ethyl)pyrrolidine-2-carboxamide]",2.5 to 10,> 75
"CC(C)[C@@H](C(=O)N1C[C@H](O)C[C@H]1C(=O)N[C@@H](C)c1ccc(-c2ccnn2C)cc1)c1cc(OCCN2CCN(CCOc3cc(N4C5CCC4CN(c4cc(-c6ccccc6O)nnc4N)C5)ccn3)CC2)no1 [compound 264, (2S,4R)-1-((2R)-2-(3-(2-(4-(2-((4-(3-(3-amino-6-(2-hydroxyphenyl)pyridazin-4-yl)-3,8-diazabicyclo[3.2.1]octan-8-yl)pyridin-2-yl)oxy)ethyl)piperazin-1-yl)ethoxy)isoxazol-5-yl)-3-methylbutanoyl)-4-hydroxy-N-((S)-1-(4-(1-methyl-1H-pyrazol-5-yl)phenyl)ethyl)pyrrolidine-2-carboxamide]",< 2.5,> 75
"Cc1cnsc1-c1ccc([C@H](C)NC(=O)[C@@H]2C[C@@H](O)CN2C(=O)[C@H](c2cc(OCCN3CCN(CCOc4cc(N5C6CCC5CN(c5cc(-c7ccccc7O)nnc5N)C6)ccn4)CC3)no2)C(C)C)cc1 [compound 265, (2S,4R)-1-((2S)-2-(3-(2-(4-(2-((4-(3-(3-amino-6-(2-hydroxyphenyl)pyridazin-4-yl)-3,8-diazabicyclo[3.2.1]octan-8-yl)pyridin-2-yl)oxy)ethyl)piperazin-1-yl)ethoxy)isoxazol-5-yl)-3-methylbutanoyl)-4-hydroxy-N-((S)-1-(4-(4-methylisothiazol-5-yl)phenyl)ethyl)pyrrolidine-2-carboxamide]",> 30,–
